Measured values taken from patent US20240327380A1, “BTK INHIBITORS” (BIOGEN MA INC., priority 2020, published 2024).
Read-outs that look alike come from different tables or passages of the source.

Columns and labels:
[1] = tested on: CD69 expression on CD19+ B cells in human whole blood; test: In Vitro whole blood CD69 Assay; type: cell-based; conditions: B-cell
Experimental: In Vitro whole blood CD69 Assay
Human heparinized venous blood from health donors was aliquoted into 96-well plate and “spiked” with serial dilutions of formula I compounds in DMSO or with DMSO without drug. The final concentration of DMSO in all wells was 0.1%. The plate was incubated at 37° C. for 30 min. Drug-containing samples were stimulated with […] mouse anti-human IgD-dextran (1A62) or […] polyclonal rabbit F(ab′)2 anti-human IgD. Phosphate-buffered saline (PBS) was added to the negative control unstimulated sample and the plates were incubated overnight (18 to 22 hours) at 37° C. Cells were stained with fluorochrome-conjugated anti-CD19 and anti-CD69 antibodies. Lyse/fix solution was used to remove red blood cells by hypotonic lysis and to fix the remaining cells, which were then analyzed by flow cytometry. CD19+ B cells were gated and analyzed for CD69 expression. The percentage of B cells expressing CD69 was plotted versus the log 10 of the concentration of the drug and the best-fit curves (variable Hill slope) were generated to obtain the IC50 value.

[2] = molecular target: T1, active BTK enzyme (Upstate 14-552) (Homo sapiens, UniProt Q06187); test: In Vitro BTK Kinase Assay: Btk-PolyGAT-LS Assay; type: biochemical; conditions: ATP 10 μM, polyGAT 100 nM, BTK 0.25 nM, 30 minutes, TRF readout
T1 construct: purchased Upstate 14-552
Experimental: In Vitro BTK Kinase Assay: Btk-PolyGAT-LS Assay The purpose of the BTK in vitro assay is to determine compound potency against BTK through the measurement of IC50. Compound inhibition is measured after monitoring the amount of phosphorylation of a fluorescein-labeled polyGAT peptide (Invitrogen PV3611) in the presence of active BTK enzyme (Upstate 14-552), ATP, and inhibitor. The BTK kinase reaction was done in a black 96 well plate (costar 3694). For a typical assay, a 24 μL aliquot of a ATP/peptide master mix (final concentration; ATP 10 μM, polyGAT 100 nM) in kinase buffer (10 mM Tris-HCl pH 7.5, 10 mM MgCl2, 200 μM […], 5 mM DTT, 0.01% Triton X-100, and 0.2 mg/ml casein) is added to each well. Next, […] of a 4-fold, 40× compound titration in 100% DMSO solvent is added, followed by adding 15 μL of BTK enzyme mix in 1× kinase buffer (with a final concentration of 0.25 nM). The assay is incubated for 30 minutes before being stopped with 28 μL of a 50 mM EDTA solution. Aliquots (5 μL) of the kinase reaction are transferred to a low volume white 384 well plate (Coming 3674), and 5 μL of a 2× detection buffer (Invitrogen PV3574, with 4 nM Tb-PY20 antibody, Invitrogen PV3552) is added. The plate is covered and incubated for 45 minutes at room temperature. Time resolved fluorescence (TRF) on Molecular Devices M5 (332 nm excitation; 488 nm emission; 518 nm fluorescein emission) is measured. IC50 values are calculated using a four parameter fit with 100% enzyme activity determined from the DMSO control and 0% activity from the EDTA control.

[3] = human heparinized whole blood, anti-human IgD stimulation overnight, percentage of CD19+ B cells expressing CD69, flow cytometry, read-out: IC50

T1 sequence (Q06187 whole entry): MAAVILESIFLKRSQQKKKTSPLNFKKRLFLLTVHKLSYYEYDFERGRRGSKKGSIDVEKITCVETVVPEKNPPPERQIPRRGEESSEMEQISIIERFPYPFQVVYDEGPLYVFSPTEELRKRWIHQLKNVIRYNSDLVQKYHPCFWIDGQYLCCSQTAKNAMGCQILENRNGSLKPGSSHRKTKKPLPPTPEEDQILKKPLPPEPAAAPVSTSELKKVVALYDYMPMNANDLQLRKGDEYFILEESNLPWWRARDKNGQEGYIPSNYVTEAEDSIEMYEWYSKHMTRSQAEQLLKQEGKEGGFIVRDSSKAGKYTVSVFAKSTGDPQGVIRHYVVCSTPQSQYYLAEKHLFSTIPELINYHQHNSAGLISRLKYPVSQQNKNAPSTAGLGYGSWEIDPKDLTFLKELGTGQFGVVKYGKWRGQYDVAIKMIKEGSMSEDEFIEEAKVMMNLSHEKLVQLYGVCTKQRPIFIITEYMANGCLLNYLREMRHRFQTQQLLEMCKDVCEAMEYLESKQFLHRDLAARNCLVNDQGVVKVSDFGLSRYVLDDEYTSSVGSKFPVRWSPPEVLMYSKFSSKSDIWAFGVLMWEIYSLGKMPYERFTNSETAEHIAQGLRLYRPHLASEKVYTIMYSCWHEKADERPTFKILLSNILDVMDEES

Compound | IC50 [1, 3] | IC50 [2] | IC50 ([1]; Homo sapiens)
C=CC(=O)N(C)[C@@H]1CCCN(c2cnccc2-c2ccc(CNC(=O)c3cn(C(C)(C)C)nn3)c(C)c2)C1 [Example 22, (R)-1-(tert-butyl)-N-(2-methyl-4-(3-(3-(N-methylacrylamido)piperidin-1-yl)pyridin-4-yl)benzyl)-1H-1,2,3-triazole-4-carboxamide] | < 100 nM | ≤ 1 nM | –
C=CC(=O)N(C)[C@H]1CCCN(c2cnccc2-c2ccc(CNC(=O)c3cn(C(C)(C)C)nn3)c(C)c2)C1 [Example 15, (S)-1-(tert-butyl)-N-(2-methyl-4-(3-(3-(N-methylacrylamido)piperidin-1-yl)pyridin-4-yl)benzyl)-1H-1,2,3-triazole-4-carboxamide] | > 1000 nM | > 10 nM | –
C=CC(=O)N(C)[C@H]1CCC(=O)N(c2cnccc2-c2ccc(CNC(=O)c3nnn(C(C)(C)C)n3)c(C)c2)C1 (single isomer, unassigned) [Example 53 Peak 1] | > 1000 nM | 1 to 10 nM | –
C=CC(=O)N1CCC(c2cnccc2-c2ccc(CNC(=O)c3noc(C(C)(C)C)n3)c(C)c2)CC1 [Example 35, N-(4-(3-(1-acryloylpiperidin-4-yl)pyridin-4-yl)-2-methylbenzyl)-5-(tert-butyl)-1,2,4-oxadiazole-3-carboxamide] | 100 to 1000 nM | 1 to 10 nM | –
Cc1cc(-c2ccncc2N2CCN(C(=O)/C=C/CN(C)C)CC2)ccc1CNC(=O)c1noc(C(C)(C)C)c1F [Example 95, (E)-5-(tert-butyl)-N-(4-(3-(4-(4-(dimethylamino)but-2-enoyl)piperazin-1-yl)pyridin-4-yl)-2-methylbenzyl)-4-fluoroisoxazole-3-carboxamide] | 100 to 1000 nM | 1 to 10 nM | –
C=CC(=O)N(C)C1CCCN(c2cnccc2-c2ccc(CNC(=O)c3nc(C(C)(C)C)no3)c(C)c2)C1 (stereo not shown) [Example 13, 3-(tert-butyl)-N-(2-methyl-4-(3-(3-(N-methylacrylamido)piperidin-1-yl)pyridin-4-yl)benzyl)-1,2,4-oxadiazole-5-carboxamide] | < 100 nM | ≤ 1 nM | –
C=CC(=O)N(C)[C@@H]1CCCCN(c2cnccc2-c2ccc(CNC(=O)c3cn(C(C)(C)C)nn3)c(C)c2)C1 [Example 51, (R)-1-(tert-butyl)-N-(2-methyl-4-(3-(3-(N-methylacrylamido)azepan-1-yl)pyridin-4-yl)benzyl)-1H-1,2,3-triazole-4-carboxamide] | > 1000 nM | ≤ 1 nM | –
C=CC(=O)N(C)C1CCCN(c2cnccc2-c2ccc(CNC(=O)c3coc(C(C)(C)C)n3)c(C)c2)C1 (stereo not shown) [Example 37, 2-(tert-butyl)-N-(2-methyl-4-(3-(3-(N-methylacrylamido)piperidin-1-yl)pyridin-4-yl)benzyl)oxazole-4-carboxamide] | 100 to 1000 nM | ≤ 1 nM | –
C=CC(=O)N(C)C1CCCN(c2cnccc2-c2ccc(CNC(=O)c3noc(C(C)(C)C)n3)c(C)c2)C1 (stereo not shown) [Example 12, 5-(tert-butyl)-N-(2-methyl-4-(3-(3-(N-methylacrylamido)piperidin-1-yl)pyridin-4-yl)benzyl)-1,2,4-oxadiazole-3-carboxamide] | < 100 nM | ≤ 1 nM | –
Cc1cc(-c2ccncc2N2CCN(C(=O)/C=C/CN(C)C)CC2)ccc1CNC(=O)c1nc(C2(C)CC2)no1 [Example 73, (E)-N-(4-(3-(4-(4-(dimethylamino)but-2-enoyl)piperazin-1-yl)pyridin-4-yl)-2-methylbenzyl)-3-(1-methylcyclopropyl)-1,2,4-oxadiazole-5-carboxamide] | 100 to 1000 nM | ≤ 1 nM | –
Cc1cc(-c2ncncc2N2CCN(C(=O)/C=C/CN(C)C)CC2)ccc1CNC(=O)c1nc(C2(C)CC2)no1 [Example 85, (E)-N-(4-(5-(4-(4-(dimethylamino)but-2-enoyl)piperazin-1-yl)pyrimidin-4-yl)-2-methylbenzyl)-3-(1-methylcyclopropyl)-1,2,4-oxadiazole-5-carboxamide] | < 100 nM | ≤ 1 nM | –
C=CC(=O)N(C)C1CCCN(c2cnccc2-c2ccc(CNC(=O)c3nc(C(C)(C)C)co3)c(C)c2)C1 (stereo not shown) [Example 39, 4-(tert-butyl)-N-(2-methyl-4-(3-(3-(N-methylacrylamido)piperidin-1-yl)pyridin-4-yl)benzyl)oxazole-2-carboxamide] | – | ≤ 1 nM | 100 to 1000 nM
CN(C)C/C=C/C(=O)N1CCN(c2cnccc2-c2ccc(CNC(=O)c3noc(C(C)(C)C)n3)c(C(F)(F)F)c2)CC1 [Example 90, (E)-5-(tert-butyl)-N-(4-(3-(4-(4-(dimethylamino)but-2-enoyl)piperazin-1-yl)pyridin-4-yl)-2-(trifluoromethyl)benzyl)-1,2,4-oxadiazole-3-carboxamide] | < 100 nM | ≤ 1 nM | –
Cc1cc(-c2ccncc2N2CCN(C(=O)/C=C/CN(C)C)CC2)ccc1CN(C)C(=O)c1noc(C(C)(C)C)n1 [Example 71, (E)-5-(tert-butyl)-N-(4-(3-(4-(4-(dimethylamino)but-2-enoyl)piperazin-1-yl)pyridin-4-yl)-2-methylbenzyl)-N-methyl-1,2,4-oxadiazole-3-carboxamide] | 100 to 1000 nM | 1 to 10 nM | –
C=CC(=O)N1CCN(c2cnccc2-c2ccc(CNC(=O)c3cn(C(C)(C)C)nn3)c(C)c2)CC1 [Example 49, N-(4-(3-(4-acryloylpiperazin-1-yl)pyridin-4-yl)-2-methylbenzyl)-1-(tert-butyl)-1H-1,2,3-triazole-4-carboxamide] | 100 to 1000 nM | ≤ 1 nM | –
C=CC(=O)N1CCC(c2cnccc2-c2ccc(CNC(=O)c3nc(C(C)(C)C)no3)c(C)c2)CC1 [Example 36, N-(4-(3-(1-acryloylpiperidin-4-yl)pyridin-4-yl)-2-methylbenzyl)-3-(tert-butyl)-1,2,4-oxadiazole-5-carboxamide] | 100 to 1000 nM | 1 to 10 nM | –
C=CC(=O)N1CCCC(c2cnccc2-c2ccc(CNC(=O)c3cn(C(C)(C)C)nn3)c(C)c2)C1 (stereo not shown) [Example 23, N-(4-(3-(1-acryloylpiperidin-3-yl)pyridin-4-yl)-2-methylbenzyl)-1-(tert-butyl)-1H-1,2,3-triazole-4-carboxamide] | > 1000 nM | 1 to 10 nM | –
Cc1cc(-c2ccncc2N2CCN(C(=O)/C=C/CN(C)C)CC2)ccc1CNC(=O)c1noc(C(C)(C)C)n1 [Example 61, (E)-5-(tert-butyl)-N-(4-(3-(4-(4-(dimethylamino)but-2-enoyl)piperazin-1-yl)pyridin-4-yl)-2-methylbenzyl)-1,2,4-oxadiazole-3-carboxamide] | < 100 nM | ≤ 1 nM | –
Cc1cc(-c2c(F)cncc2N2CCN(C(=O)/C=C/CN(C)C)CC2)ccc1CNC(=O)c1noc(C2(C)CC2)n1 [Example 77, (E)-N-(4-(3-(4-(4-(dimethylamino)but-2-enoyl)piperazin-1-yl)-5-fluoropyridin-4-yl)-2-methylbenzyl)-5-(1-methylcyclopropyl)-1,2,4-oxadiazole-3-carboxamide] | – | 1 to 10 nM | –
Cc1cc(-c2ccncc2N2CCN(C(=O)/C=C/CN3CCOCC3)CC2)ccc1CNC(=O)c1noc(C(C)(C)C)n1 [Example 67, (E)-5-(tert-butyl)-N-(2-methyl-4-(3-(4-(4-morpholinobut-2-enoyl)piperazin-1-yl)pyridin-4-yl)benzyl)-1,2,4-oxadiazole-3-carboxamide] | – | 1 to 10 nM | –
CNC/C=C/C(=O)N1CCN(c2cnccc2-c2ccc(CNC(=O)c3noc(C(C)(C)C)n3)c(C)c2)CC1 [Example 68, (E)-5-(tert-butyl)-N-(2-methyl-4-(3-(4-(4-(methylamino)but-2-enoyl)piperazin-1-yl)pyridin-4-yl)benzyl)-1,2,4-oxadiazole-3-carboxamide] | – | 1 to 10 nM | –
Cc1cc(-c2ccncc2N2CCN(C(=O)C3=CCC3)CC2)ccc1CNC(=O)c1noc(C(C)(C)C)n1 [Example 57, 5-(tert-butyl)-N-(4-(3-(4-(cyclobut-1-ene-1-carbonyl)piperazin-1-yl)pyridin-4-yl)-2-methylbenzyl)-1,2,4-oxadiazole-3-carboxamide] | – | ≤ 1 nM | –
